{
  "source": "a melting point compilation (Tetko et al.; mined from patent text by program, amines drawn as free bases though some values may be those of a salt)",
  "data": [
    {"units": {"melting point": "°C"}, "values": [
      {"smiles": "COC(=O)C(O)c1ccc2c(c1)OCO2", "note": "(stereo not drawn)", "melting point": "93 to 95"},
      {"smiles": "CCC1(C)SC(C)N=C1C", "note": "(stereo not drawn)", "melting point": 82},
      {"smiles": "COc1cc(C)c(CCCCCCCCCCCCCCCCCCOC(C)=O)c(O)c1OC", "melting point": 53},
      {"smiles": "CC(=O)OC1C(CO)OC(c2ccc(Cl)c(Cc3ccc(-c4ccccc4)s3)c2)C(OC(C)=O)C1OC(C)=O", "note": "(stereo not drawn)", "melting point": "166 to 168"},
      {"smiles": "Oc1ccc(-c2nc3cc(O)c(Br)cc3o2)cc1F", "melting point": "224 to 226"},
      {"smiles": "Cc1c(NC(=O)c2ccc(-c3cccc(NC(=O)C(C)C)c3)cc2)ccc2cc(CN3CCCC3)cnc12", "melting point": "152 to 155"},
      {"smiles": "O=c1[nH]c(CCN2CCN(c3nsc4ccccc34)CC2)cs1", "melting point": 190},
      {"smiles": "NC1=NC(Br)=C(c2ccc(C(F)(F)F)cc2)c2ccccc2C1", "melting point": "227 to 229"},
      {"smiles": "CCOC1=C(C#N)S(=O)(=O)N=C1N", "melting point": "236 to 238"},
      {"smiles": "C#CCn1c(-c2cc(Cl)nc(Cl)c2)nc(OS(=O)(=O)C(F)(F)F)c(CC)c1=O", "melting point": "112 to 114"},
      {"smiles": "Cc1cc(-n2ccnc2)c2cccc(OCc3c(Cl)ccc(S(=O)(=O)N4CCC[C@H]4C(=O)NCCN4CCCC4)c3Cl)c2n1", "melting point": 105},
      {"smiles": "CCC1(N2C(=O)c3ccccc3C2=O)C(=O)NC(=O)N(C2CCCCC2)C1=O", "note": "(stereo not drawn)", "melting point": "248 to 253"},
      {"smiles": "CCn1c(NC)n[nH]c1=O", "melting point": "208 to 210"},
      {"smiles": "N#Cc1ccc([C@H]2CC[C@H](CCC=O)CC2)cc1", "melting point": 30},
      {"smiles": "CCOC(=O)Cc1c(-c2ccccc2)nn2cccnc12", "melting point": "86 to 89"},
      {"smiles": "CCCCn1c(=O)c(NC(=O)Nc2cc(CO)ccc2C(C)(C)C)c(-c2cccc(OCc3cccnc3)c2)c2cccnc21", "melting point": "149 to 150"},
      {"smiles": "Oc1ncc(-c2ccccc2)cn1", "melting point": "239 to 241"},
      {"smiles": "NC(Cc1nc2ccccc2nc1CP(=O)(O)O)C(=O)O", "note": "(stereo not drawn)", "melting point": 174},
      {"smiles": "C[C@H]1OC(=O)N[C@@H]1C(=O)NCCO[N+](=O)[O-]", "melting point": "81.5 to 82.5"},
      {"smiles": "OC(CSc1ncnc2c1cnn2CC1CO1)CN1CCN(C(c2ccccc2)c2ccccc2)CC1", "note": "(stereo not drawn)", "melting point": "87 to 92"},
      {"smiles": "NCc1cccc(-c2ccc(Br)cc2)n1", "melting point": "71 to 75"},
      {"smiles": "CCCCN(CCCC)Cc1nc(-c2ncn3c2CN(C)C(=O)c2c(Cl)cccc2-3)no1", "melting point": "140 to 142"},
      {"smiles": "N#Cc1c(N)nn(-c2c(Cl)cc(C(F)(F)F)cc2Cl)c1N", "melting point": "208 to 210"},
      {"smiles": "O=C(O)Cc1ccc2c(c1)N(C1CCN(CCc3ccc(F)cc3)CC1)CC2", "melting point": "130 to 132"},
      {"smiles": "CC=CCSc1cc(C(=O)O)cc(S(N)(=O)=O)c1-c1ccccc1", "melting point": "89 to 91"},
      {"smiles": "CS(=O)(=O)c1ccc(-c2[nH]nc(OC3CCCC3=O)c2-c2ccc(F)cc2)cc1", "note": "(stereo not drawn)", "melting point": "96 to 99"},
      {"smiles": "CC(C)C(=O)Nc1ccoc1", "melting point": 120},
      {"smiles": "CC(C)(C)OC(=O)N[C@H](C(=O)N1CCC[C@H]1C(=O)OCc1ccccc1)C(C)(C)C", "melting point": 174},
      {"smiles": "CN1CCN(C(=O)c2cc(=O)c3c(OCCOc4ccccc4)cccc3o2)CC1", "melting point": "90 to 91.5"},
      {"smiles": "N#Cc1ccc(N2C(=O)C3C(O)CCCN3C2=O)c2ccccc12", "note": "(stereo not drawn)", "melting point": 243},
      {"smiles": "O=C(NC1CCCCC1)c1c(O)c2ccccc2n(Cc2ccc(F)cc2)c1=O", "melting point": 168},
      {"smiles": "COC(=O)c1nc2nccc(S)n2n1", "melting point": 206},
      {"smiles": "CC(=O)CC(=O)OCN1C(=O)c2ccccc2C1=O", "melting point": "106 to 109"},
      {"smiles": "Nc1cc(-c2ccccc2)cc2ccccc12", "melting point": 103},
      {"smiles": "COc1ccc(Nc2nc(O)nc(NC3CCCCCC3)n2)cc1Cl", "melting point": "> 310"},
      {"smiles": "N#Cc1cc(-c2nc3cncnc3s2)ccc1Oc1ccccc1Cl", "melting point": "209 to 211"},
      {"smiles": "CCOC(=O)C(C#N)=Cc1cc(OC)c(C(=O)OC)c(OC)c1", "melting point": "142 to 144"},
      {"smiles": "C=CCNC(=O)N1CC(Oc2cccc(C(F)(F)F)c2)C1", "melting point": "75 to 76"},
      {"smiles": "O=c1[nH]c2cc(Cl)ccc2c(O)c1-c1ccccc1Oc1ccccc1", "melting point": "284 to 288"},
      {"smiles": "COc1cc(C)c(/C=C/c2nc3c(c(=O)n(C)c(=O)n3C)n2C)cc1C", "melting point": "> 280"},
      {"smiles": "CCOC(=O)c1cc2c(OCc3ccccc3)cc(C)cc2[nH]1", "melting point": "167 to 168"},
      {"smiles": "Nc1ncnc2c1ncn2Cc1nc2c(Cl)cccc2c(=O)n1-c1ccccc1Cl", "melting point": "273 to 274"},
      {"smiles": "CCCNC(=O)C1(CCCCNc2ccc(Br)nc2)c2ccccc2-c2ccccc21", "melting point": "67 to 69"},
      {"smiles": "CCCCNC(=O)C(O[Si](C)(C)C(C)(C)C)C(C)(C)C", "note": "(stereo not drawn)", "melting point": "41 to 42"},
      {"smiles": "COC(=O)c1ccnc(N2CCN(Cc3ccc(F)cc3)C2=O)c1", "melting point": "119 to 121"},
      {"smiles": "CN(O)C(=N)c1nn(-c2c(Cl)cc(C(F)(F)F)cc2Cl)c(N)c1S(=O)C(F)(F)F", "note": "(stereo not drawn)", "melting point": "187 to 191"},
      {"smiles": "COc1ccc(-c2ccc(C(=O)O)cc2)cc1OCCCCc1ccccc1", "melting point": "178 to 179"},
      {"smiles": "CCOC(=O)c1cnn2c1c(O)nc1ccccc12", "melting point": "249 to 251"},
      {"smiles": "C=CCOC1=NC2OC(C(=O)c3ccc(Cl)cc3Cl)=C(NC(N)=O)C2C=C1", "note": "(stereo not drawn)", "melting point": 222},
      {"smiles": "Cc1ccc(C)c2c(OCCNC(=O)OC(C)(C)C)noc12", "melting point": "78 to 79"},
      {"smiles": "CNc1nc2cccc(C(=O)O)c2s1", "melting point": "> 330"},
      {"smiles": "COc1ccc2c(c1)cc(C=O)n2S(=O)(=O)c1ccccc1", "melting point": "123 to 124"},
      {"smiles": "O=C1CCCCC1=CC(=O)c1ccccc1", "melting point": "75 to 77"},
      {"smiles": "CC#CCOc1ccc(S(=O)(=O)N(C)C(C(=O)NO)c2ccc(OCCCNC(=O)OCc3ccccc3)cc2)cc1", "note": "(stereo not drawn)", "melting point": "48 to 50"},
      {"smiles": "Clc1ccc2[nH]cc(C3CCNCC3)c2c1", "melting point": "156 to 158"},
      {"smiles": "CCCCOc1cc(C(=O)NCC#N)cc(Cl)n1", "melting point": "72 to 73"},
      {"smiles": "CCCOC(C)c1ccc(-c2ccc(C(=O)O)cc2)cc1", "note": "(single isomer, unassigned; (+))", "melting point": 172},
      {"smiles": "COC(=O)CCc1cc2cc(Cl)ccc2n1S(=O)(=O)c1cccc2cccnc12", "melting point": "157 to 161"},
      {"smiles": "CCCn1nc(C(F)(F)CCC)nc1Cc1ccc(-c2ccccc2-c2nnn[nH]2)nc1", "melting point": "140 to 141"},
      {"smiles": "O=c1cc(-c2ccncc2)nc2n1CCCCC2", "melting point": "148 to 150"},
      {"smiles": "Clc1cc2snnc2s1", "melting point": "78 to 79"},
      {"smiles": "C#CCOc1cc(-n2nc(C)c(Cl)c2C)c(Cl)cc1Cl", "melting point": "156 to 158"},
      {"smiles": "Cc1cccc(NCC(=O)Nc2ccc(S(N)(=O)=O)cc2Cl)c1", "melting point": "185 to 189"},
      {"smiles": "CCCCOC(=O)n1nc(-c2cccc(Br)c2)ccc1=O", "melting point": "126 to 129"},
      {"smiles": "O=c1[nH]c2cc(C(F)(F)F)ccc2n(CCn2ncnn2)c1=O", "melting point": 280},
      {"smiles": "Cn1cc(C(O)(c2ccc3c(cnn3C(=O)c3ccccc3)c2)C(F)(F)F)c2ccccc21", "note": "(stereo not drawn)", "melting point": "102 to 103"},
      {"smiles": "Cc1ccc2c(NCc3ccccc3)c3c(nc2c1)CCCC3O", "note": "(stereo not drawn)", "melting point": "148 to 153"},
      {"smiles": "COc1c(-c2ccc3cc(NS(C)(=O)=O)ccc3c2)cc(-n2ccc(=O)[nH]c2=O)cc1C(F)(F)C(F)(F)F", "melting point": "162 to 165"},
      {"smiles": "CN1C2C=C(c3cc4ccccc4s3)CC1CCC2", "note": "(stereo not drawn)", "melting point": "91.3 to 93.5"},
      {"smiles": "Oc1ncnc2nc(CC3CCN(CC4COc5ccccc5O4)CC3)n(Cc3ccc(F)cc3)c12", "note": "(stereo not drawn)", "melting point": 175},
      {"smiles": "CS(=O)(=O)c1ccc(C(=O)c2c(S(C)(=O)=O)noc2C2CC2)c(Cl)c1", "melting point": 150},
      {"smiles": "CC(Cc1c[nH]c2ccccc12)(NC(=O)OC1C2CC3CC(C2)CC1C3)C(=O)NCC(NC(=O)C1CC1C(=O)O)c1ccccc1", "note": "(stereo not drawn)", "melting point": "138 to 142"},
      {"smiles": "CCOC(=O)CCc1ccc(NC(C)=O)cc1", "melting point": "52 to 53"}
    ]}
  ]
}
